# Test results taken from PubChem BioAssay (NCI).
#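 Cells were grown in 96-well plates and exposed to each compound for 48 hours at five concentrations; endpoints were interpolated linearly between bracketing concentrations, or set to the highest concentration if not reached. At the TGI there is no net growth.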
# Columns and labels:
# Test in all cases: NCI-60 cell line screen, 48 h
# 786-0 renal = test system: 786-0 renal
# A498 renal = test system: A498 renal
# A549 NSCLC = test system: A549 NSCLC
# ACHN renal = test system: ACHN renal
# COLO 205 colon = test system: COLO 205 colon
# DLD-1 colon = test system: DLD-1 colon
# DMS 114 small cell lung = test system: DMS 114 small cell lung
# EKVX NSCLC = test system: EKVX NSCLC
# HCC-2998 colon = test system: HCC-2998 colon
# HCT-116 colon = test system: HCT-116 colon
# HCT-15 colon = test system: HCT-15 colon
# HL-60(TB) leukemia = test system: HL-60(TB) leukemia
# HOP-18 NSCLC = test system: HOP-18 NSCLC
# HOP-62 NSCLC = test system: HOP-62 NSCLC
# HOP-92 NSCLC = test system: HOP-92 NSCLC
# HT29 colon = test system: HT29 colon
# IGROV1 ovarian = test system: IGROV1 ovarian
# K-562 leukemia = test system: K-562 leukemia
# KM12 colon = test system: KM12 colon
# KM20L2 colon = test system: KM20L2 colon
# LXFL 529 NSCLC = test system: LXFL 529 NSCLC
# M14 melanoma = test system: M14 melanoma
# M19-MEL melanoma = test system: M19-MEL melanoma
# MALME-3M melanoma = test system: MALME-3M melanoma
# MOLT-4 leukemia = test system: MOLT-4 leukemia
# NCI-H23 lung = test system: NCI-H23 lung
# NCI-H460 lung = test system: NCI-H460 lung
# NCI-H522 lung = test system: NCI-H522 lung
# OVCAR-3 ovarian = test system: OVCAR-3 ovarian
# OVCAR-4 ovarian = test system: OVCAR-4 ovarian
# OVCAR-5 ovarian = test system: OVCAR-5 ovarian
# OVCAR-8 ovarian = test system: OVCAR-8 ovarian
# RPMI-8226 leukemia = test system: RPMI-8226 leukemia
# RXF 393 renal = test system: RXF 393 renal
# RXF-631 renal = test system: RXF-631 renal
# SF-268 CNS = test system: SF-268 CNS
# SF-295 CNS = test system: SF-295 CNS
# SF-539 CNS = test system: SF-539 CNS
# SK-MEL-2 melanoma = test system: SK-MEL-2 melanoma
# SK-MEL-28 melanoma = test system: SK-MEL-28 melanoma
# SK-MEL-5 melanoma = test system: SK-MEL-5 melanoma
# SN12C renal = test system: SN12C renal
# SNB-19 CNS = test system: SNB-19 CNS
# SNB-78 CNS = test system: SNB-78 CNS
# SW-620 colon = test system: SW-620 colon
# TK-10 renal = test system: TK-10 renal
# U251 CNS = test system: U251 CNS
# UACC-257 melanoma = test system: UACC-257 melanoma
# UACC-62 melanoma = test system: UACC-62 melanoma
# UO-31 renal = test system: UO-31 renal
# CAKI-1 renal = test system: CAKI-1 renal
# CCRF-CEM leukemia = test system: CCRF-CEM leukemia
# DMS 273 small cell lung = test system: DMS 273 small cell lung
# LOX IMVI melanoma = test system: LOX IMVI melanoma
# NCI-H226 lung = test system: NCI-H226 lung
# SK-OV-3 ovarian = test system: SK-OV-3 ovarian
# SNB-75 CNS = test system: SNB-75 CNS
# SR leukemia = test system: SR leukemia
# XF 498 CNS = test system: XF 498 CNS
smiles,measurement,setting,value
CC1=N/C(=C\c2ccc([N+](=O)[O-])cc2)C(=O)O1,TGI,786-0 renal,> 100 µM
same,TGI,A498 renal,> 100 µM
same,TGI,A549 NSCLC,> 100 µM
same,TGI,ACHN renal,> 100 µM
same,TGI,COLO 205 colon,> 100 µM
same,TGI,DLD-1 colon,> 100 µM
same,TGI,DMS 114 small cell lung,> 100 µM
same,TGI,EKVX NSCLC,> 100 µM
same,TGI,HCC-2998 colon,> 100 µM
same,TGI,HCT-116 colon,> 100 µM
same,TGI,HCT-15 colon,> 100 µM
same,TGI,HL-60(TB) leukemia,> 100 µM
same,TGI,HOP-18 NSCLC,> 100 µM
same,TGI,HOP-62 NSCLC,> 100 µM
same,TGI,HOP-92 NSCLC,> 100 µM
same,TGI,HT29 colon,> 100 µM
same,TGI,IGROV1 ovarian,> 100 µM
same,TGI,K-562 leukemia,> 100 µM
same,TGI,KM12 colon,> 100 µM
same,TGI,KM20L2 colon,> 100 µM
same,TGI,LXFL 529 NSCLC,> 100 µM
same,TGI,M14 melanoma,> 100 µM
same,TGI,M19-MEL melanoma,> 100 µM
same,TGI,MALME-3M melanoma,> 100 µM
same,TGI,MOLT-4 leukemia,> 100 µM
same,TGI,NCI-H23 lung,> 100 µM
same,TGI,NCI-H460 lung,> 100 µM
same,TGI,NCI-H522 lung,> 100 µM
same,TGI,OVCAR-3 ovarian,> 100 µM
same,TGI,OVCAR-4 ovarian,> 100 µM
same,TGI,OVCAR-5 ovarian,> 100 µM
same,TGI,OVCAR-8 ovarian,> 100 µM
same,TGI,RPMI-8226 leukemia,> 100 µM
same,TGI,RXF 393 renal,> 100 µM
same,TGI,RXF-631 renal,> 100 µM
same,TGI,SF-268 CNS,> 100 µM
same,TGI,SF-295 CNS,> 100 µM
same,TGI,SF-539 CNS,> 100 µM
same,TGI,SK-MEL-2 melanoma,> 100 µM
same,TGI,SK-MEL-28 melanoma,> 100 µM
same,TGI,SK-MEL-5 melanoma,> 100 µM
same,TGI,SN12C renal,> 100 µM
same,TGI,SNB-19 CNS,> 100 µM
same,TGI,SNB-78 CNS,> 100 µM
same,TGI,SW-620 colon,> 100 µM
same,TGI,TK-10 renal,> 100 µM
same,TGI,U251 CNS,> 100 µM
same,TGI,UACC-257 melanoma,> 100 µM
same,TGI,UACC-62 melanoma,> 100 µM
same,TGI,UO-31 renal,> 100 µM
O=c1cc2cc(O)[nH]c(=O)c2c(O)[nH]1,TGI,A498 renal,> 100 µM
same,TGI,A549 NSCLC,> 100 µM
same,TGI,CAKI-1 renal,> 100 µM
same,TGI,CCRF-CEM leukemia,> 100 µM
same,TGI,COLO 205 colon,> 100 µM
same,TGI,DLD-1 colon,> 100 µM
same,TGI,DMS 114 small cell lung,> 100 µM
same,TGI,DMS 273 small cell lung,> 100 µM
same,TGI,HCT-116 colon,> 100 µM
same,TGI,HCT-15 colon,> 100 µM
same,TGI,HL-60(TB) leukemia,> 100 µM
same,TGI,HOP-62 NSCLC,> 100 µM
same,TGI,HOP-92 NSCLC,> 100 µM
same,TGI,HT29 colon,> 100 µM
same,TGI,IGROV1 ovarian,> 100 µM
same,TGI,K-562 leukemia,> 100 µM
same,TGI,KM12 colon,> 100 µM
same,TGI,KM20L2 colon,> 100 µM
same,TGI,LOX IMVI melanoma,> 100 µM
same,TGI,LXFL 529 NSCLC,> 100 µM
same,TGI,M14 melanoma,> 100 µM
same,TGI,M19-MEL melanoma,> 100 µM
same,TGI,MALME-3M melanoma,> 100 µM
same,TGI,MOLT-4 leukemia,> 100 µM
same,TGI,NCI-H226 lung,> 100 µM
same,TGI,NCI-H23 lung,> 100 µM
same,TGI,NCI-H460 lung,> 100 µM
same,TGI,NCI-H522 lung,> 100 µM
same,TGI,OVCAR-3 ovarian,> 100 µM
same,TGI,OVCAR-4 ovarian,> 100 µM
same,TGI,OVCAR-5 ovarian,> 100 µM
same,TGI,RPMI-8226 leukemia,> 100 µM
same,TGI,RXF 393 renal,> 100 µM
same,TGI,RXF-631 renal,> 100 µM
same,TGI,SF-268 CNS,> 100 µM
same,TGI,SF-295 CNS,> 100 µM
same,TGI,SF-539 CNS,> 100 µM
same,TGI,SK-MEL-5 melanoma,> 100 µM
same,TGI,SK-OV-3 ovarian,> 100 µM
same,TGI,SN12C renal,> 100 µM
same,TGI,SNB-19 CNS,> 100 µM
same,TGI,SNB-75 CNS,> 100 µM
same,TGI,SNB-78 CNS,> 100 µM
same,TGI,SR leukemia,> 100 µM
same,TGI,SW-620 colon,> 100 µM
same,TGI,TK-10 renal,> 100 µM
same,TGI,U251 CNS,> 100 µM
same,TGI,UACC-257 melanoma,> 100 µM
same,TGI,UACC-62 melanoma,> 100 µM
same,TGI,UO-31 renal,> 100 µM
same,TGI,XF 498 CNS,> 100 µM
Cc1cccc(N2C(=O)C(=O)C(c3nc4ccccc4s3)C(=O)C2=O)c1C,TGI,786-0 renal,> 100 µM
same,TGI,A498 renal,> 100 µM
same,TGI,A549 NSCLC,> 100 µM
same,TGI,ACHN renal,> 100 µM
same,TGI,CAKI-1 renal,> 100 µM
same,TGI,CCRF-CEM leukemia,> 100 µM
same,TGI,COLO 205 colon,> 100 µM
same,TGI,DLD-1 colon,> 100 µM
same,TGI,DMS 114 small cell lung,> 100 µM
same,TGI,DMS 273 small cell lung,> 100 µM
same,TGI,EKVX NSCLC,> 100 µM
same,TGI,HCC-2998 colon,> 100 µM
same,TGI,HCT-116 colon,> 100 µM
same,TGI,HCT-15 colon,> 100 µM
same,TGI,HOP-18 NSCLC,> 100 µM
same,TGI,HOP-62 NSCLC,> 100 µM
same,TGI,HOP-92 NSCLC,> 100 µM
same,TGI,HT29 colon,> 100 µM
same,TGI,IGROV1 ovarian,> 100 µM
same,TGI,K-562 leukemia,> 100 µM
same,TGI,KM20L2 colon,> 100 µM
same,TGI,LOX IMVI melanoma,> 100 µM
same,TGI,LXFL 529 NSCLC,> 100 µM
same,TGI,M14 melanoma,> 100 µM
same,TGI,M19-MEL melanoma,> 100 µM
same,TGI,MALME-3M melanoma,> 100 µM
same,TGI,MOLT-4 leukemia,> 100 µM
same,TGI,NCI-H226 lung,> 100 µM
same,TGI,NCI-H23 lung,> 100 µM
same,TGI,NCI-H522 lung,> 100 µM
same,TGI,OVCAR-3 ovarian,> 100 µM
same,TGI,OVCAR-4 ovarian,> 100 µM
same,TGI,OVCAR-5 ovarian,> 100 µM
same,TGI,OVCAR-8 ovarian,> 100 µM
same,TGI,RPMI-8226 leukemia,> 100 µM
same,TGI,RXF-631 renal,> 100 µM
same,TGI,SF-268 CNS,> 100 µM
same,TGI,SF-295 CNS,> 100 µM
same,TGI,SF-539 CNS,> 100 µM
same,TGI,SK-MEL-2 melanoma,> 100 µM
same,TGI,SK-MEL-28 melanoma,> 100 µM
same,TGI,SK-MEL-5 melanoma,> 100 µM
same,TGI,SK-OV-3 ovarian,> 100 µM
same,TGI,SN12C renal,> 100 µM
same,TGI,SNB-19 CNS,> 100 µM
same,TGI,SNB-75 CNS,> 100 µM
same,TGI,SNB-78 CNS,> 100 µM
same,TGI,SR leukemia,> 100 µM
same,TGI,SW-620 colon,> 100 µM
same,TGI,TK-10 renal,> 100 µM
same,TGI,U251 CNS,> 100 µM
same,TGI,UACC-257 melanoma,> 100 µM
same,TGI,UACC-62 melanoma,> 100 µM
same,TGI,UO-31 renal,> 100 µM
CCc1cccc(C(C)CC)c1NC(=O)CC1C(=O)Nc2ccccc2S1=O (configuration not stated),TGI,786-0 renal,> 100 µM
same,TGI,A498 renal,> 100 µM
same,TGI,A549 NSCLC,> 100 µM
same,TGI,ACHN renal,> 100 µM
same,TGI,CAKI-1 renal,> 100 µM
same,TGI,CCRF-CEM leukemia,90.3 µM
same,TGI,DLD-1 colon,> 100 µM
same,TGI,DMS 114 small cell lung,> 100 µM
same,TGI,DMS 273 small cell lung,> 100 µM
same,TGI,EKVX NSCLC,> 100 µM
same,TGI,HCC-2998 colon,> 100 µM
same,TGI,HCT-116 colon,> 100 µM
same,TGI,HCT-15 colon,> 100 µM
same,TGI,HL-60(TB) leukemia,> 100 µM
same,TGI,HOP-92 NSCLC,46.3 µM
same,TGI,HT29 colon,55.1 µM
same,TGI,IGROV1 ovarian,78.6 µM
same,TGI,K-562 leukemia,> 100 µM
same,TGI,KM20L2 colon,> 100 µM
same,TGI,LOX IMVI melanoma,73.7 µM
same,TGI,LXFL 529 NSCLC,> 100 µM
same,TGI,M14 melanoma,55.8 µM
same,TGI,M19-MEL melanoma,> 100 µM
same,TGI,MALME-3M melanoma,> 100 µM
same,TGI,MOLT-4 leukemia,69 µM
same,TGI,NCI-H226 lung,> 100 µM
same,TGI,NCI-H23 lung,> 100 µM
same,TGI,NCI-H460 lung,> 100 µM
same,TGI,OVCAR-3 ovarian,> 100 µM
same,TGI,OVCAR-4 ovarian,47.9 µM
same,TGI,OVCAR-5 ovarian,> 100 µM
same,TGI,OVCAR-8 ovarian,> 100 µM
same,TGI,RPMI-8226 leukemia,> 100 µM
same,TGI,RXF 393 renal,46.1 µM
same,TGI,RXF-631 renal,> 100 µM
same,TGI,SF-268 CNS,> 100 µM
same,TGI,SF-295 CNS,> 100 µM
same,TGI,SF-539 CNS,46.2 µM
same,TGI,SK-MEL-2 melanoma,> 100 µM
same,TGI,SK-MEL-28 melanoma,68.1 µM
same,TGI,SK-MEL-5 melanoma,> 100 µM
same,TGI,SN12C renal,> 100 µM
same,TGI,SNB-19 CNS,> 100 µM
same,TGI,SNB-75 CNS,49.4 µM
same,TGI,SNB-78 CNS,92.9 µM
same,TGI,SR leukemia,73.6 µM
same,TGI,SW-620 colon,> 100 µM
same,TGI,TK-10 renal,> 100 µM
same,TGI,U251 CNS,48.5 µM
same,TGI,UACC-257 melanoma,> 100 µM
same,TGI,UACC-62 melanoma,> 100 µM
same,TGI,UO-31 renal,> 100 µM
